Assay results published in patent US8821887B2, “T-cell antigen peptide from allergen for stimulation of IL-10 production” (Circassia Limited, priority 2008, dated 2014).
Non-standard residues stand in square brackets, D forms with d. No end group written: not given here. 5‑aminobutyric acid = not defined here

tested on: PBMC's; assay: Cytokine release assay (IL-10 release from PBMCs, ELISA or multiplex bead array); assay type: cell-based; conditions: house dust mite peptides of Example 1; PBMCs of dust mite allergic individuals; 5 days stimulation; FIGS. 1 and 2
Procedure: FIGS. 1 and 2 show mean IL-10 release (y axis, pg/ml) in response to the house dust mite peptides shown on the x axis, for a population of dust mite allergic individuals.
FIGS. 3 and 4 show mean IL-10 release (y axis, pg/ml) in response to the ragweed peptides shown on the x axis, for a population of ragweed allergic individuals.
Cytokine secretion profiles from PBMC's are analysed in response to the peptide stimulation using the peptides from Examples 1 and 2. Supernatants from the cytokine release assay were tested for the presence of IL-10, using either an ELISA assay or a multiplex bead array assay. A typical cytokine release assay requires 40×10^6 PBMC's per subject. In more detail, 250 μl of a 200 μg/ml solution of the appropriate antigen or peptide concentration is distributed into the appropriate wells of 48 well plates. Plates are then incubated in a humidified 5% CO2 incubator at 37° C. for a maximum of 4 hours. 250 μl of a 5×10^6 cell/ml PBMC suspension is then added to each well and the plates returned to the incubator for 5 days. Following stimulation, samples of culture supernatant are harvested for testing by ELISA or multiplex bead assay according to standard protocols.

| Sequence | IL-10 production compared with other peptides | IL-10 release compared with whole allergen |
| --- | --- | --- |
| DEFKNRFLMSAEAFE [HDM202] | higher IL-10 production than other peptides | higher IL-10 release than whole allergen |
| ELVDSASQHG (Description of Artificial Sequence: Synthetic HDM03W peptide) | higher IL-10 production than other peptides | higher IL-10 release than whole allergen |
| EQELVDSASQHG [HDM03V] | higher IL-10 production than other peptides | – |
| RNQSLDLAEQELVD ? ASQH (RNQSLDLAEQELVD[5‑aminobutyric acid]ASQH; not fully specified; reading uncertain) [HDM03E, character = 2-aminobutryic acid] | higher IL-10 production than other peptides | higher IL-10 release than whole allergen |
| RNQSLDLAEQELVDSASQH (Description of Artificial Sequence: Synthetic HDM03D peptide) | higher IL-10 production than other peptides | – |

same assay, conditions: ragweed peptides of Example 2; PBMCs of ragweed allergic individuals; 5 days stimulation; FIGS. 3 and 4

| Sequence | IL-10 production compared with other peptides | IL-10 release compared with whole allergen |
| --- | --- | --- |
| GEAAIKLTSSAGVLS [RGW07] | higher IL-10 production than other peptides | – |
| GESALSLTSSAGVLS [RGW07B] | higher IL-10 production than other peptides | – |
| KGEAAIKLTSSAGVLSK [RGW07C] | higher IL-10 production than other peptides | – |
| KGEAAIKLTSSAGVLSKK [RGW07D] | higher IL-10 production than other peptides | higher IL-10 release than whole allergen |
